The record followed here is patent US11001850B2, “Constructs and methods for biosynthesis of cyclopamine” (priority 2014, dated 2021).

Format in all cases: biochemical, Veratrum californicum
Series [1] relates to CYP90G1 (22-hydroxy-26-aminocholesterol 22-oxidase). The series can be described thus: Substrate testing of CYP90G1 (22-hydroxy-26-aminocholesterol 22-oxidase) co-expressed with CPR in Sf9 cells. The conditions noted are these: for Oxidation of the 22-hydroxy position of substrate by VC13284 (22-hydroxy-26-aminocholesterol 22-oxidase), in words: Sf9 cells with CPR, GC-MS / LC-MS/MS; for Production of a detectable product (substrate testing), CYP90G1: 7.5 μM substrate, crude Sf9 cell suspension with CPR, 1.25 mM NADPH, 30° C. for 2 hours, GC-MS or LC-MS/MS. Also noted: key to Production of a detectable product (substrate testing), CYP90G1: Production of a detectable product is indicated by a (+). The protocol:
(§1) Each cytochrome P450 co-expressed with CPR in S. frugiperda Sf9 cells was subjected to individual enzyme assays with the compounds found in Table 6 to determine functionality. Compounds were prepared to 1 mM stock solutions of 100% DMSO and diluted with H2O.
(§2) Standards were obtained from Sigma Aldrich, Research Plus, and Avanti. For GC-MS analysis, 5 individual assays per substrate were pooled after incubation at 30° C. for 2 hours; one assay produced sufficient product for analysis by LC-MS/MS. Assay conditions were as follows: 80 μl S. frugiperda Sf9 cell suspension (obtained by re-suspension of 50 ml viral infected culture pellet in 3.5 ml of 100 mM tricine pH 7.4/5 mM thioglycolic acid), 60 mM potassium phosphate buffer pH 8, 1.25 mM NADPH, 7.5 μM substrate, and H2O in a total volume of 200 μl. Controls were performed with no enzyme and S. frugiperda Sf9 cells expressing an unrelated cytochrome P450, or CPR-only, for each assay.

Series [2] has as its system CYP94N1 (22-hydroxycholesterol 26-hydroxylase/oxidase). The series can be described thus: Substrate testing of CYP94N1 (22-hydroxycholesterol 26-hydroxylase/oxidase) co-expressed with CPR in Sf9 cells. Also noted: key to Production of a detectable product (substrate testing), CYP94N1: Production of a detectable product is indicated by a (+). The following applies: for Hydroxylation of substrate by VC12709 (22-hydroxycholesterol 26-hydroxylase/oxidase), in words: Sf9 cells with CPR, GC-MS. The method, then: as §1, §2
Assay for GC-MS: Cytochrome P450 enzyme assay conditions were identical to those stated above using S. frugiperda Sf9 cell suspensions with the following modifications. First, 12 assays each containing 22-hydroxy-26-aminocholesterol 22-oxidase+CPR, 22-hydroxycholesterol 26-hydroxylase/oxidase+CPR, or control cytochrome P450+CPR and each with pure 22(R)-hydroxycholesterol were allowed to incubate overnight at 30° C. Like assays were pooled, extracted 3 times with 2 volumes ethyl acetate, dried under N2, and re-suspended in 180 μl of 25% DMSO. Extracts containing the enzymatic product of the 22-hydroxycholesterol 26-hydroxylase/oxidase+CPR and 22(R)-hydroxycholesterol were divided equally and used as substrate for 22-hydroxy-26-aminocholesterol 22-oxidase+CPR and control cytochrome P450+CPR. Extracts containing the enzymatic product of 22-hydroxy-26-aminocholesterol 22-oxidase+CPR and 22(R)-hydroxycholesterol were divided and used as substrate in 6 assays containing 22-hydroxycholesterol 26-hydroxylase/oxidase+CPR and 6 assays containing control cytochrome P450+CPR. Control P450+CPR assay was run in parallel, treated identically and added to another control P450 assay. Refer to FIG. 1A for an overview of the experiment. Assays were allowed to incubate for 20 min at 30° C. then stopped by addition of 20 μl of 20% TCA with vortexing. Like assays were pooled, extracted, derivatized, and analyzed by GC-MS using the method stated above.

Series [3] has as its system CYP90B27 (cholesterol 22-hydroxylase). As to the kind of experiment: Substrate testing of CYP90B27 (cholesterol 22-hydroxylase) co-expressed with CPR in Sf9 cells. The following applies: for Production of a detectable product (substrate testing), CYP90B27: 7.5 μM substrate, crude Sf9 cell suspension with CPR, 1.25 mM NADPH, 30° C. for 2 hours, GC-MS or LC-MS/MS; for Hydroxylation of substrate by cholesterol 22-hydroxylase (VC2646), in words: Sf9 cells with CPR, GC-MS. Also noted: key to Production of a detectable product (substrate testing), CYP90B27: Production of a detectable product is indicated by a (+). The protocol: Compounds were prepared to 1 mM stock solutions of 100% DMSO and diluted with H2O.
as §2

For `CC(CN)CCC(O)[C@@H](C)[C@H]1CC[C@H]2[C@@H]3CC=C4C[C@@H](O)CC[C@]4(C)[C@H]3CC[C@]12C` (stereo partly shown) [22-hydroxy-26-aminocholesterol], the “Oxidation of the 22-hydroxy position of substrate by VC13284 (22-hydroxy-26-aminocholesterol 22-oxidase), in words” value (“Oxidation” for short) in series [1] is given as “oxidizes the 22-hydroxy position”.
For the molecule `CC(CO)CCC(O)[C@@H](C)[C@H]1CC[C@H]2[C@@H]3CC=C4C[C@@H](O)CC[C@]4(C)[C@H]3CC[C@]12C` (stereo partly shown) [22,26-dihydroxycholesterol], in series [1], the “Production of a detectable product (substrate testing), CYP90G1” value is given as “+” and the “Oxidation” value is “oxidizes the 22-hydroxy position”.
Turning to `CC(C)CCC[C@@H](C)[C@H]1CC[C@H]2[C@@H]3CC=C4C[C@@H](O)CC[C@]4(C)[C@H]3CC[C@]12C` [cholesterol], the “Hydroxylation of substrate by VC12709 (22-hydroxycholesterol 26-hydroxylase/oxidase), in words” value in series [2] was “not detected”. Also, in series [3], the “Production of a detectable product (substrate testing), CYP90B27” value (“Production … CYP90B27” below) is listed as “+” and the “Hydroxylation of substrate by cholesterol 22-hydroxylase (VC2646), in words” value (shortened to “Hydroxylation of substrate … (VC2646), in words”) is listed as “added a hydroxyl group to the 22-position”.
Regarding `C[C@@H](CO)CCC[C@@H](C)[C@H]1CC[C@H]2[C@@H]3CC=C4C[C@@H](O)CC[C@]4(C)[C@H]3CC[C@]12C` [26-hydroxycholesterol], in series [3], the “Production … CYP90B27” value is on record as “+” and the “Hydroxylation of substrate … (VC2646), in words” value was “hydroxylated”.
`CC(C)CCC(=O)[C@@H](C)[C@H]1CC[C@H]2[C@@H]3CC=C4C[C@@H](O)CC[C@]4(C)[C@H]3CC[C@]12C` [22-keto-cholesterol]: the “Hydroxylation of substrate by VC12709 (22-hydroxycholesterol 26-hydroxylase/oxidase), in words” value in series [2] is “unable to hydroxylate”.
Consider `CC(C)CCC[C@@H](C)[C@H]1CC[C@H]2[C@@H]3[C@@H](O)C=C4C[C@@H](O)CC[C@]4(C)[C@H]3CC[C@]12C` [7β-hydroxycholesterol], for which, in series [3], the “Production … CYP90B27” value is on record as “+” and the “Hydroxylation of substrate … (VC2646), in words” value is “hydroxylated”.
Regarding `CC(C)CC[C@@H](O)[C@@H](C)[C@H]1CC[C@H]2[C@@H]3CC=C4C[C@@H](O)CC[C@]4(C)[C@H]3CC[C@]12C` [22(R)-hydroxycholesterol], in series [2] (7.5 μM substrate, crude Sf9 cell suspension with CPR, 1.25 mM NADPH, 30° C. for 2 hours, GC-MS or LC-MS/MS), the “Production of a detectable product (substrate testing), CYP94N1” value is “+”. In series [2], the “Hydroxylation of substrate by VC12709 (22-hydroxycholesterol 26-hydroxylase/oxidase), in words” value is reported as “found to hydroxylate”. The “Production … CYP90B27” value in series [3] was “+”. In series [1], the “Production of a detectable product (substrate testing), CYP90G1” value was “+” and the “Oxidation” value is recorded as “oxidizes the 22-hydroxy position”.
